In ChEMBL document CHEMBL1133815, “Anti-Trypanosoma activity of some natural stilbenoids and synthetic related heterocyclic compounds” (Bioorg Med Chem Lett, 2001) one finds IC50 and Ratio data, which are given here for 51 molecules.

In experiment [1] the test system is Trypanosoma cruzi. Kind of experiment: Inhibitory concentration against trypomastigotes (Y strain) of Trypanosoma cruzi; Inactive. The class given is functional, organism-based.
For experiment [2], the system named is Trypanosoma cruzi. The experiment in a line: Inhibitory concentration against epimastigotes (Tulahuen strain) of Trypanosoma cruzi; Inactive. The class given is functional, organism-based.
Experiment [3] is described as follows: Ratio of inhibitory concentration to that of reference drug was determined. The format is functional.
In experiment [4] the test system is Trypanosoma cruzi. The experiment in a line: Inhibitory concentration against Epimastigotes (Tulahuen strain) of Trypanosoma cruzi. The format is functional, organism-based.
In experiment [5] the test system is Trypanosoma cruzi. Kind of experiment: Inhibitory concentration against Trypomastigotes (Y strain) of Trypanosoma cruzi. The class given is functional, organism-based.
Where [6] appears, read: Trypanosoma cruzi, read-out: IC50.

The structures appear in SMILES notation. In brackets after ≈: the same amount, converted by molar mass. Several values for one entry are separate records, joined by “and”; a condition that tells them apart may be missing. Identical values can stand only once.

In the case of `COc1ccc(Cc2nnc(O)c3ccccc23)cc1OC`, the IC50 with Trypanosoma cruzi [1] and with Trypanosoma cruzi [2] was above 100 µg/mL throughout.
Consider `O=C(Cc1ccc2c(c1)OCO2)c1ccccc1C(=O)N1CCCCC1`, for which the IC50 in the experiment with Trypanosoma cruzi [1] and in the experiment with Trypanosoma cruzi [2] was above 100 µg/mL each time.
The molecule `COc1cc(C(=O)C(=O)c2ccccc2C(=O)N2CCCCC2)cc(OC)c1OC` yielded an IC50 in the experiment with Trypanosoma cruzi [1] above 100 µg/mL.
`COc1ccc(Cc2nn(C)c(=O)c3ccccc23)cc1OC`: the IC50 with Trypanosoma cruzi [1] and in the experiment on Trypanosoma cruzi [2] was above 100 µg/mL each time.
Take `O=C(C(=O)c1ccccc1C(=O)N1CCCCC1)c1ccccc1`: the IC50 with Trypanosoma cruzi [1] and with Trypanosoma cruzi [2] was above 100 µg/mL in each case.
On to `COc1ccc(CCc2cc(O)cc(OC)c2C(=O)O)cc1` [ISONOTHOLAENIC ACID], for which the IC50 in the experiment with Trypanosoma cruzi [1] is above 100 µg/mL.
`COc1ccc(CC(=O)c2ccccc2C(=O)N2CCCCC2)cc1OC`: the IC50 with Trypanosoma cruzi [1] and in the experiment on Trypanosoma cruzi [2] was above 100 µg/mL throughout.
Consider `OC1(Cc2ccc3c(c2)OCO3)c2ccccc2C2=NCCCN21` (stereo unspecified), for which the IC50 in the experiment on Trypanosoma cruzi [1] and in the experiment on Trypanosoma cruzi [2] was above 100 µg/mL in each case.
Consider `COc1ccc(Cc2nn(C)c(=O)c3ccccc23)cc1`, for which the IC50 in the experiment on Trypanosoma cruzi [1] and in the experiment with Trypanosoma cruzi [2] was above 100 µg/mL in each case.
On to `COc1ccc(CC2(O)c3ccccc3C3=NCCCN32)cc1` (stereo unspecified), for which the IC50 in the experiment on Trypanosoma cruzi [1] and with Trypanosoma cruzi [2] was above 100 µg/mL in each case.
Turning to `COc1ccc(CC2(O)c3ccccc3C3=NCCCN32)cc1OC` (stereo unspecified), the 50% inhibitory concentration (IC50) in the experiment on Trypanosoma cruzi [1] and in the experiment with Trypanosoma cruzi [2] was above 100 µg/mL in each case.
Turning to `Cn1nc(Cc2ccccc2)c2ccccc2c1=O`, the IC50 in the experiment with Trypanosoma cruzi [1] and in the experiment on Trypanosoma cruzi [2] was above 100 µg/mL in each case.
As to `COc1cc(CC2(O)c3ccccc3C3=NCCCN32)cc(OC)c1OC` (stereo unspecified), the IC50 in the experiment on Trypanosoma cruzi [1] and with Trypanosoma cruzi [2] was above 100 µg/mL each time.
`COc1ccc(C(=O)C(=O)c2ccccc2C(=O)N2CCCC2)cc1`: the IC50 in the experiment with Trypanosoma cruzi [1] and in the experiment with Trypanosoma cruzi [2] was above 100 µg/mL each time.
Take `O=C(Cc1ccccc1)c1ccccc1C(=O)N1CCCCC1`: the IC50 in the experiment on Trypanosoma cruzi [1] and in the experiment on Trypanosoma cruzi [2] was above 100 µg/mL each time.
For `COc1ccc(Cc2nnc(O)c3ccccc23)cc1`, the IC50 with Trypanosoma cruzi [1] and in the experiment on Trypanosoma cruzi [2] was above 100 µg/mL each time.
Molecule `COc1cc(CC(=O)c2ccccc2C(=O)N2CCCCC2)cc(OC)c1OC` showed an IC50 with Trypanosoma cruzi [1] above 100 µg/mL.
In the case of `O=C(Cn1ccnc1[N+](=O)[O-])NCc1ccccc1` [BENZNIDAZOLE], in experiment [3], the Ratio is 1. Also, the IC50 in the experiment on Trypanosoma cruzi [4] is 7.4 µg/mL and 30 µM.
With `O=C1O/C(=C\c2ccc3c(c2)OCO3)c2ccccc21`, the IC50 in the experiment on Trypanosoma cruzi [1] and in the experiment on Trypanosoma cruzi [2] was above 100 µg/mL each time.
For `COc1ccc(/C=C2\OC(=O)c3ccccc32)cc1OC`, the half-maximal inhibitory concentration (IC50) in the experiment with Trypanosoma cruzi [1] and with Trypanosoma cruzi [2] was above 100 µg/mL in each case.
As for `O=C(C(=O)c1ccccc1C(=O)N1CCCCC1)c1ccc2c(c1)OCO2`, the 50% inhibitory concentration (IC50) with Trypanosoma cruzi [1] and in the experiment with Trypanosoma cruzi [2] was above 100 µg/mL in each case.
Take `COc1cc(/C=C2\OC(=O)c3ccccc32)cc(OC)c1OC`: the IC50 with Trypanosoma cruzi [1] and in the experiment with Trypanosoma cruzi [2] was above 100 µg/mL throughout.
Regarding `COc1ccc(C(=O)C(=O)c2ccccc2C(=O)N2CCCCC2)cc1OC`, the IC50 with Trypanosoma cruzi [1] and in the experiment on Trypanosoma cruzi [2] was above 100 µg/mL each time.
Turning to `COc1ccc(CCc2cc(O)cc(OC)c2C(=O)N2CCCCC2)cc1`, the IC50 in the experiment with Trypanosoma cruzi [4] was 30 µg/mL and 81.3 µM; in the experiment on Trypanosoma cruzi [5], 12 µg/mL and 33 µg/mL.
In the experiment on Trypanosoma cruzi [1], `COc1ccc(CC2(O)c3ccccc3C3=NCCN32)cc1` (stereo unspecified) showed an IC50 above 100 µg/mL.
Regarding `O=c1[nH]nc(Cc2ccccc2)c2ccccc12`, the concentration for half-maximal inhibition (IC50) in the experiment on Trypanosoma cruzi [1] and with Trypanosoma cruzi [2] was above 100 µg/mL throughout.
As for `Cn1nc(Cc2ccc3c(c2)OCO3)c2ccccc2c1=O`, the IC50 in the experiment with Trypanosoma cruzi [1] and in the experiment with Trypanosoma cruzi [2] was above 100 µg/mL throughout.
Consider `OC1(Cc2ccc(Cl)cc2)c2ccccc2C2=NCCN21` (stereo unspecified), for which the IC50 was determined as 2.3 µg/mL (≈ 7.7 µM) with Trypanosoma cruzi [1], 33.6 µM in the experiment with Trypanosoma cruzi [4], 7.9 µM in the experiment with Trypanosoma cruzi [5] (setting [6]) and 10 µg/mL (≈ 33.5 µM) with Trypanosoma cruzi [2].
Turning to `CCNC(=O)c1ccccc1C(=O)C(=O)c1ccc(OC)cc1`, the IC50 in the experiment with Trypanosoma cruzi [1] and in the experiment with Trypanosoma cruzi [2] was above 100 µg/mL in each case.
Consider `COc1ccc(CC2(O)c3ccccc3C3=NCCN32)cc1OC` (stereo unspecified), for which the IC50 in the experiment on Trypanosoma cruzi [1] and in the experiment with Trypanosoma cruzi [2] was above 100 µg/mL throughout.
Consider `Oc1nnc(Cc2ccc(Cl)cc2)c2ccccc12`, for which the IC50 in the experiment on Trypanosoma cruzi [1] and with Trypanosoma cruzi [2] was above 100 µg/mL throughout.
As for `O=C1O/C(=C\c2ccccc2)c2ccccc21`, the half-maximal inhibitory concentration (IC50) with Trypanosoma cruzi [1] is above 100 µg/mL; in the experiment with Trypanosoma cruzi [2], 45 µg/mL (≈ 202 µM).
With `COc1cc(CC2(O)c3ccccc3C3=NCCN32)cc(OC)c1OC` (stereo unspecified), the IC50 with Trypanosoma cruzi [1] and in the experiment on Trypanosoma cruzi [2] was above 100 µg/mL in each case.
Consider `COc1ccc(CC(=O)c2ccccc2C(=O)N2CCCCC2)cc1`, for which the IC50 in the experiment on Trypanosoma cruzi [1] and in the experiment with Trypanosoma cruzi [2] was above 100 µg/mL in each case.
For `COc1cc(Cc2nnc(O)c3ccccc23)cc(OC)c1OC`, the IC50 in the experiment on Trypanosoma cruzi [1] and in the experiment on Trypanosoma cruzi [2] was above 100 µg/mL in each case.
As for `O=C1O/C(=C\c2ccc(Cl)cc2)c2ccccc21`, the IC50 with Trypanosoma cruzi [1] and with Trypanosoma cruzi [2] was above 100 µg/mL in each case.
In the experiment on Trypanosoma cruzi [1], `OC1(Cc2ccccc2)c2ccccc2C2=NCCCN21` (stereo unspecified) yielded an IC50 above 100 µg/mL.
Turning to `COc1ccc(/C=C2\OC(=O)c3ccccc32)cc1`, the IC50 with Trypanosoma cruzi [1] and with Trypanosoma cruzi [2] was above 100 µg/mL throughout.
Turning to `COc1ccc(CCc2cc(OC(C)=O)cc(OC)c2C(=O)O)cc1`, the IC50 in the experiment with Trypanosoma cruzi [1] and in the experiment on Trypanosoma cruzi [2] was above 100 µg/mL in each case.
With `COc1cc(Cc2nn(C)c(=O)c3ccccc23)cc(OC)c1OC`, the IC50 with Trypanosoma cruzi [1] and in the experiment with Trypanosoma cruzi [2] was above 100 µg/mL throughout.
With `OC1(Cc2ccc(Cl)cc2)c2ccccc2C2=NCCCN21` (stereo unspecified), the IC50 with Trypanosoma cruzi [1] is above 100 µg/mL.
Consider `COc1ccc(C(=O)C(=O)c2ccccc2C(=O)N2CCCCC2)cc1`, for which the IC50 with Trypanosoma cruzi [1] and in the experiment on Trypanosoma cruzi [2] was above 100 µg/mL each time.
For `O=C(Cc1ccc(Cl)cc1)c1ccccc1C(=O)N1CCCCC1`, the IC50 in the experiment with Trypanosoma cruzi [1] and in the experiment with Trypanosoma cruzi [2] was above 100 µg/mL each time.
For the molecule `CN(C)c1ccc(C(=C2C=CC(=[N+](C)C)C=C2)c2ccc(N(C)C)cc2)cc1.[Cl-]` [GENTIAN VIOLET], the IC50 with Trypanosoma cruzi [5] (setting [6]) was 100 µg/mL and 245 µM.
As to `OC1(Cc2ccccc2)c2ccccc2C2=NCCN21` (stereo unspecified), in the experiment on Trypanosoma cruzi [1], the half-maximal inhibitory concentration (IC50) is above 100 µg/mL.
In the case of `COC(=O)c1c(CCc2ccc(OC)cc2)cc(O)cc1OC`, the half-inhibitory concentration (IC50) in the experiment on Trypanosoma cruzi [1] and with Trypanosoma cruzi [2] was above 100 µg/mL throughout.
On to `COc1ccc(CCc2cc(O)cc(OC)c2)cc1`, for which the IC50 in the experiment on Trypanosoma cruzi [1] and in the experiment on Trypanosoma cruzi [2] was above 100 µg/mL each time.
As to `O=C(C(=O)c1ccccc1C(=O)N1CCCCC1)c1ccc(Cl)cc1`, the IC50 with Trypanosoma cruzi [1] and in the experiment with Trypanosoma cruzi [2] was above 100 µg/mL in each case.
On to `Cn1nc(Cc2ccc(Cl)cc2)c2ccccc2c1=O`, for which the IC50 with Trypanosoma cruzi [1] and with Trypanosoma cruzi [2] was above 100 µg/mL each time.
As to `OC1(Cc2ccc3c(c2)OCO3)c2ccccc2C2=NCCN21` (stereo unspecified), the IC50 with Trypanosoma cruzi [1] and in the experiment on Trypanosoma cruzi [2] was above 100 µg/mL in each case.
Consider `Oc1nnc(Cc2ccc3c(c2)OCO3)c2ccccc12`, for which the IC50 in the experiment on Trypanosoma cruzi [1] and in the experiment with Trypanosoma cruzi [2] was above 100 µg/mL each time.

As a reminder, the IC50 is the concentration needed to halve the response being measured.
